Experimental data published in patent US11008551B2, “Method to increase the infectivity of virus particles” (The Trustees of Princeton University, priority 2011, dated 2021).

Experiments:
[1] = system: HCMV strain AD169 virions; experiment: Infectivity of gradient purified virions treated with MCβD and/or cholesterol; assay type: cell-based, human cytomegalovirus (HCMV)
Description: Due to the ability to sequester cholesterol in its hydrophobic pocket, methyl-ß-cyclodextrin (MCβD) removes cholesterol from membranes (Christian, Haynes et al. 1997). Thus, in order to directly test the role of virion envelope cholesterol in HCMV infection, purified virions were treated with various concentrations of MCβD to deplete cholesterol.
(§1) Gradient purified HCMV strain AD169 virions were either mock treated or treated with increasing concentrations of MCβD for 30 min at 37° C. MCβD (50 mM) treated virus was incubated in varying concentrations of cholesterol for 30 min at 37° C. Virus (no MCβD treatment) was incubated in varying concentrations of cholesterol for 30 min at 37° C. In all experiments, infectivity (FIG. 5, left panels) and cholesterol content (FIG. 5, right panels) were determined for the treated samples. Infectivity of untreated virus was set to 100%. Virus cholesterol content was determined using the amplexred (Invitrogen) specrofluorometric assay.
(§2) To determine whether the effect of MCβD could be rescued (and is thus reversible), and moreover, to determine if the loss of infectivity was due to cholesterol depletion, exogenous cholesterol was used to replenish the envelopes of MCβD-treated virions by incubating the virus particles with various amounts of free cholesterol.
(§3) To determine if virus infectivity could be increased by increasing virion cholesterol content alone, gradient purified HCMV virions were incubated with increasing concentrations of cholesterol then gradient purified for a second time.

[2] = system: HCMV strain AD169 virions; experiment: Virus cholesterol content after MCβD and/or cholesterol treatment, amplex red assay; set-up: species or system human cytomegalovirus (HCMV)
Description: as §1
To confirm that MCβD treatment depleted virus of envelope cholesterol, the cholesterol content of MCβD-depleted virus was determined (FIG. 5A, right).
as §2, §3

HCMV strain AD169 = experiment: Acid bypass assay of MCβD-treated virus, IE1 expression at 24 hpi; assay type: cell-based, human cytomegalovirus (HCMV); conditions: MCβD 50 mM, 3 pfu/cell, pH 4.7 vs 7.4, 24 hpi
Description: It is known that infection of host cells by enveloped viruses relies on the fusion of the viral envelope with either an endosomal membrane or the plasma membrane of the cell. Therefore, experiments were designed to test whether infectivity of MCβD-treated virus can be restored by using an “acid bypass assay” (Mercer and Helenius 2008) to circumvent the normal membrane fusion process during virus entry.
Cells were infected with MCβD (50 mM)-treated or mock-treated HCMV strain AD169 at a multiplicity of 3 pfu/cell, allowed to sit at 4° C. for 30 min to allow virus binding, then treated with buffer at a neutral (7.4) or acidic (4.7) pH for 3 min, washed with PBS, and examined for IE1 expression 24 hours later.
HCMV particles, either treated with MCβD or left untreated, were bound to cells at 4° C., then incubated in a low pH buffer (pH 4.7) to artificially induce the fusion event, thus allowing fusion-deficient viruses to enter the cell and replicate. A neutral pH buffer was used as a control. Virus replication after acid bypass was visualized by IE1 expression at 24 hpi (FIG. 6).

HCMV [3] = experiment: Cholesterol supplementation of serum-starved antibody-treated MRC5 cells, cell-free virus by TCID50; assay type: cell-based, human cytomegalovirus (HCMV); conditions: serum-starved MRC5 cells also treated with LRP1-specific antibody, 0.1 PFU/cell, 96 hpi
Description: (§4) In a second experiment, cells were serum starved for 48 hours then treated with indicated antibodies. 1 hour post antibody treatment, serum-starved, confluent MRC5 cells were treated with various concentrations of cholesterol (+fatty acid-free BSA carrier) for 1 hour then infected at a multiplicity of 0.1 PFU/cell. At 96 hpi, released virus was used to infect new cells. “N” indicates no added cholesterol. Cell-free virus was quantified by a TCID50 assay. Data represents the mean and standard deviation from three independent experiments with three replicates each.

HCMV [4] = experiment: Mevastatin treatment of infected MRC5 cells, released virus quantified by TCID50; assay type: cell-based, human cytomegalovirus (HCMV)
Description: In a first experiment, MRC5 cells were left untreated, treated with Mevastatin or mock treated. At 90 minutes post Mevastatin treatment, cells were treated with antibody to LRP1 or tubulin or left untreated. 1 hour post Mevastatin treatment, cells were infected at a multiplicity of 0.1 PFU/cell. At 96 hpi, released virus was used to infect new cells.
as §4

[5] = virions treated with increasing MCβD, 30 min at 37° C.
[6] = MCβD (50 mM) treated virus incubated with varying cholesterol, 30 min at 37° C.
[7] = virus without MCβD treatment incubated with increasing cholesterol

## methyl-ß-cyclodextrin [MCβD]
[1]; [5]
  HCMV infectivity: dose-dependent inhibition
[2]; 50 mM MCβD
  depletion of virion cholesterol: 90%
[2]; [5]
  virus cholesterol content: dose-dependent decrease
HCMV strain AD169
  ability of treated virus to enter the cell and express IE1 protein after acid bypass: dramatic difference

## CC(C)CCC[C@@H](C)[C@H]1CC[C@H]2[C@@H]3CC=C4C[C@@H](O)CC[C@]4(C)[C@H]3CC[C@]12C [cholesterol]
[1]; [6]
  HCMV infectivity of MCβD-treated virions: partially restored
[1]; [7]
  virus infectivity: increased
[2]; [6]
  envelope cholesterol content of MCβD-treated virions: partially restored
[2]; [7]
  overall cholesterol content of virus: increased
HCMV [3]
  production of HCMV infectivity: substantially enhanced

## CC[C@H](C)C(=O)O[C@H]1CCC=C2C=C[C@H](C)[C@H](CC[C@@H]3C[C@@H](O)CC(=O)O3)[C@H]21 [Mevastatin]
HCMV [4]; MRC5 cells also treated with LRP1 antibody
  reversal of the increased infectivity caused by inhibition of LRP1 activity: to a limited extent
HCMV [4]; MRC5 cells, 0.1 PFU/cell, 96 hpi, Mevastatin
  production of infectivity: inhibited the production of infectivity in a dose-dependent manner
